ChEMBL document CHEMBL5113521, “Discovery of a Novel Oral Proteasome Inhibitor to Block NLRP3 Inflammasome Activation with Anti-inflammation Activity” (J Med Chem, 2022)
Active and inactive are the calls of the source. The rule behind the calls is not given here.

What was measured:
[1] = test system: Mus musculus; test: Anti-colitis activity against DSS-induced C57BL/6 mouse model assessed as suppression of DSS induced fecal occult blood at 0.125 to 0.5 mg/kg, po administered every 72 hrs for 10 days; type: functional, organism-based; settings: dose 0.125-0.5 mg/kg, time 10.0 day
[2] = molecular target: NACHT, LRR and PYD domains-containing protein 3 (Mus musculus) (UniProt Q8R4B8); test: Inhibition of NLRP3 inflammasome activation in LPS-stimulated mouse J774.A1 cells assessed as blockage of NLRP3-ASC protein-protein interaction at 15 to 60 nM preincubated for 1 hr followed by nigericin stimulation by co-immunoprecipitation assay; type: cell-based; settings: dose 15-60 nM
Sequence of NACHT, LRR and PYD domains-containing protein 3 (Mus musculus) (Q8R4B8 whole entry, the tested form may be a part): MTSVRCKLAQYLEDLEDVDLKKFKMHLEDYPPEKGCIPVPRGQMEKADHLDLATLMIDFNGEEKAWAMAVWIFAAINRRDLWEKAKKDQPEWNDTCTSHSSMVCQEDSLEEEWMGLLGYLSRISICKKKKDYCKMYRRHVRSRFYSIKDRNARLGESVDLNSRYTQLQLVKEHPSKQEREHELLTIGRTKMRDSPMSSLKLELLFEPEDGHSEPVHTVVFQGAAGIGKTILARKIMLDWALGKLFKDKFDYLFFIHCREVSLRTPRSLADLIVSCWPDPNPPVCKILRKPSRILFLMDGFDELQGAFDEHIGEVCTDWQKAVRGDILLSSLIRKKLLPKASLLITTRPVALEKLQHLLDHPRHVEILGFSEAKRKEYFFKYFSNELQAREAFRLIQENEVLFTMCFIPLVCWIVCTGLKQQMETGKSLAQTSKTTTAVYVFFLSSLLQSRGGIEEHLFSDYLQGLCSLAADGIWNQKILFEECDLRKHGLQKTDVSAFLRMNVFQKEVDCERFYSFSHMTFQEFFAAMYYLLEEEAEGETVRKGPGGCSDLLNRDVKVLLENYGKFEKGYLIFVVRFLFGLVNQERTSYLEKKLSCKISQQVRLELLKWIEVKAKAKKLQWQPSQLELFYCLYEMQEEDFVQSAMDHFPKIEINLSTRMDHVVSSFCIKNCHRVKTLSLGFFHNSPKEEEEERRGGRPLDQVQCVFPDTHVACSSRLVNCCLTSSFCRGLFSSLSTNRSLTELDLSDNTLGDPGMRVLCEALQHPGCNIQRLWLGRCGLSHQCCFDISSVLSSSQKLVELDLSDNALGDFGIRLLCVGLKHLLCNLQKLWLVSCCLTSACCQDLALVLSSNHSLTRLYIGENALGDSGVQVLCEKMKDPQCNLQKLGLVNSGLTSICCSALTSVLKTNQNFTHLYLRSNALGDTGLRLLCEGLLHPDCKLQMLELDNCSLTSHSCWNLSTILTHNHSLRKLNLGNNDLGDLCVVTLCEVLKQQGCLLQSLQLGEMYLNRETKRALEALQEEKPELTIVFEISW

[3] = molecular target: T1, Apoptosis-associated speck-like protein containing a CARD (Mus musculus) (UniProt Q9EPB4); test: Inhibition of ASC oligomerization in LPS stimulated mouse J774A.1 cells preincubated for 1 hr followed by nigericin stimulation by immunoblot analysis; type: cell-based; settings: J774.A1, dose 15-60 nM, DDE = dose-dependent effect
T1 sequence (whole entry): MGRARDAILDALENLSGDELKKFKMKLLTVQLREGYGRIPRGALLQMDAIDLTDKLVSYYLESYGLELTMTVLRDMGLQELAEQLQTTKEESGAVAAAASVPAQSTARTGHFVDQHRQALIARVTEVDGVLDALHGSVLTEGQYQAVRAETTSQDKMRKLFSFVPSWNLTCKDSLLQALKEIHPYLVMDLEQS

[4] = molecular target: NACHT, LRR and PYD domains-containing protein 3 (Mus musculus) (UniProt Q8R4B8); test: Inhibition of NLRP3 inflammasome activation in LPS-primed mouse J774.A1 cells assessed as inhibition of release of IL-1 beta preincubated for 1 hr followed by nigericin stimulation and measured after 1 hr by ELISA; type: cell-based; settings: dose 7.5-60 nM, time 2.0 hrs, DDE = dose-dependent effect
[5] = molecular target: T2, Interferon-inducible protein AIM2 (Mus musculus) (UniProt Q91VJ1); test: Inhibition of AIM2 inflammasome activation in LPS-primed mouse BMDM cells assessed as reduction in IL-1beta secretion at 7.5 to 60 nM preincubated for 1 hr followed by FLA-ST Ultrapure stimulation by ELISA; type: cell-based; settings: dose 7.5-60 nM
T2 sequence (whole entry): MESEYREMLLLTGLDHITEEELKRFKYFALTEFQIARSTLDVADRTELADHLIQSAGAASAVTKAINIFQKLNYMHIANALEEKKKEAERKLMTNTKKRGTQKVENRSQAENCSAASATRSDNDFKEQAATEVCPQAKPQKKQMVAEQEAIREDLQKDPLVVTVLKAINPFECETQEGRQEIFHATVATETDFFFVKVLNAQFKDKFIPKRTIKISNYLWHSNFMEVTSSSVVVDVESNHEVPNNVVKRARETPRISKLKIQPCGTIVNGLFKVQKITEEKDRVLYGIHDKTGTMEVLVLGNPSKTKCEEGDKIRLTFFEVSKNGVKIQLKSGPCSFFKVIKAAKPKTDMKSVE

[6] = molecular target: NACHT, LRR and PYD domains-containing protein 3 (Mus musculus) (UniProt Q8R4B8); test: Inhibition of NLRP3 inflammasome activation in LPS-primed mouse J774.A1 cells assessed as inhibition of caspase-1 p20 subunit release in supernatant preincubated for 1 hr followed by nigericin stimulation measured after 1 hr by Western blot analysis; type: cell-based; settings: dose 7.5-60 nM, time 2.0 hrs, DDE = dose-dependent effect
[7] = molecular target: NACHT, LRR and PYD domains-containing protein 3 (Mus musculus) (UniProt Q8R4B8); test: Inhibition of NLRP3 inflammasome activation in LPS-stimulated mouse J774.A1 cells assessed as increase in c-Cbl expression at 7.5 to 60 nM preincubated for 1 hr followed by nigericin stimulation measured after 1 hr by immunoblot analysis; type: cell-based; settings: dose 7.5-60 nM, time 2.0 hrs
[8] = molecular target: NACHT, LRR and PYD domains-containing protein 3 (Mus musculus) (UniProt Q8R4B8); test: Inhibition of NLRP3 inflammasome activation in LPS/nigericin stimulated mouse BMDM cells assessed as […] in ASC speck formation at 15 to 60 nM preincubated for 1 hr followed by LPS/nigericin stimulation by DAPI staining based immunofluorescence assay; type: cell-based; settings: dose 15-60 nM
[9] = test system: J774.A1; test: Inhibition of NF-kappaB in LPS treated mouse J774.A1 cells assessed as reduction in TNFalpha level at 7.5 to 60 nM incubated for 1 hr followed by LPS stimulation measured after 5 hrs by Western blot analysis; type: cell-based; settings: dose 7.5-60 nM, time 6.0 hrs
[10] = test system: J774.A1; test: Inhibition of NF-kappaB in LPS treated mouse J774.A1 cells assessed as reduction in pro-IL-1beta expression at 7.5 to 60 nM incubated for 1 hr followed by LPS stimulation measured after 5 hrs by Western blot analysis; type: cell-based; settings: dose 7.5-60 nM, time 6.0 hrs
[11] = Tmax in Sprague-Dawley rat at 0.5 mg/kg, iv measured upto 24 hrs by liquid chromatography tandem mass spectrometry; type: ADME, organism-based; settings: in vivo
[12] = Cmax in Sprague-Dawley rat at 1 mg/kg, po measured upto 24 hrs by liquid chromatography tandem mass spectrometry; type: ADME, organism-based; set-up: dose 1 mg/kg, time < 24 hrs, route po; settings: in vivo
[13] = AUC (0 to infinity) in Sprague-Dawley rat at 0.5 mg/kg, iv measured upto 24 hrs by liquid chromatography tandem mass spectrometry; type: ADME, organism-based; set-up: time < 24 hrs, dose 0.5 mg/kg, route iv; settings: in vivo
[14] = AUC (0 to infinity) in Sprague-Dawley rat at 1 mg/kg, po measured upto 24 hrs by liquid chromatography tandem mass spectrometry; type: ADME, organism-based; set-up: dose 1 mg/kg, time < 24 hrs, route po; settings: in vivo
[15] = MRT (0 to infinity) in Sprague-Dawley rat at 0.5 mg/kg, iv measured upto 24 hrs by liquid chromatography tandem mass spectrometry; type: ADME, organism-based; settings: in vivo
[16] = Clearance in Sprague-Dawley rat at 0.5 mg/kg, iv measured upto 24 hrs by liquid chromatography tandem mass spectrometry; type: ADME, organism-based; settings: in vivo
[17] = Oral bioavailability in Sprague-Dawley rat at 1 mg/kg measured upto 24 hrs by liquid chromatography tandem mass spectrometry; type: ADME, organism-based; settings: in vivo
[18] = organism: Mus musculus; test: Protection against DSS-induced C57BL/6 mouse ulcerative colitis model assessed as reduction in IL-1 beta in colon homogenate by ELISA; type: functional, organism-based; settings: dose 0.125-0.5 mg/kg, route po, DDE = dose-dependent effect
[19] = test system: Mus musculus; test: Protection against DSS-induced C57BL/6 mouse ulcerative colitis model assessed as reduction in pro-IL-1 beta level in colon at 0.125 to 0.5 mg/kg, po by Western blot analysis; type: functional, organism-based; settings: dose 0.125-0.5 mg/kg
[20] = test system: Mus musculus; test: Protection against DSS-induced C57BL/6 mouse ulcerative colitis model assessed as reduction in NLRP3 level in colon at 0.125 to 0.5 mg/kg, po by Western blot analysis; type: functional, organism-based; settings: dose 0.125-0.5 mg/kg

inhibition [2]: Active
inhibition [3]: Dde
inhibition [4]: Dde
inhibition [5]: Active
inhibition [6]: Dde
Activity [7]: Active
inhibition [8]: Active
Tmax [11]: 4.8 min
Cmax [12]: 208 ng/mL
AUC [13]: 448.8 ng·h/mL
AUC [14]: 489.2 ng·h/mL
MRT inf [15]: 6.14 h
clearance [16]: 18.8 mL/min/kg
bioavailability [17]: 48.1%
SMILES: CC(C)C[C@H](NC(=O)[C@H](Cc1ccccc1)NC(=O)c1c(F)cccc1F)B(O)O
Activity [1]: Active
inhibition [9]: Active
inhibition [10]: Active
Activity [18]: Dde
Activity [19]: Active
Activity [20]: Active
